Assay results reported in PubChem BioAssay AID1963869 (Molecular Pharmacology Branch, DTP, NCI, 2024).

Test system: KRAS patient-derived spheroids with HUVEC/MSC, viability
Assay: Anticancer human tumor 323965-272-R-J2-PDC patient-derived pancreatic carcinoma cell line growth inhibition [KRAS2]
Conditions: for IC50: curve of first compound; for viability, T/C: stronger effect = lower value
From the text: Multicellular complex tumor spheroid response to RAS pathway inhibitors in combination with a targeted agents in patient-derived cell lines with oncogenic KRAS variants from multiple cancer types
A high-throughput screen of multi-cell type tumor spheroids was designed to identify active combinations of targeted small molecules and KRAS pathway inhibitors. Complex spheroids include a stromal component modeled by human endothelial cells (HUVEC) and fibroblasts modeled by human mesenchymal stem cells (MSCs). The concentration ranges selected for each drug and investigational agent were based upon clinically achievable concentrations if the clinical Cmax of the agent was known.
Compounds. The drugs and investigational agents: BI-3406 (NSC825286), BAY-293 (NSC824723), batoprotafib (TNO155; NSC825523), sotorasib (AMG 510; NSC818433), MRTX1257 (NSC819558), elimusertib (BAY 1895344; NSC800525), molibresib (GSK525762; NSC774829), temuterkib (LY3214996; NSC803410), venetoclax (NSC766270), alisertib (NSC759677), olaparib (NSC753686), talazoparib (NSC767125), erdafitinib (NSC781556), ipatasertib (NSC767898), cabozantinib (NSC761068), nintedanib (NSC756659), abemaciclib (NSC768073), docetaxel (NSC628503), trametinib (NSC758246), and sapanisertib (NSC764658) were obtained from the National Cancer Institute (NCI) Developmental Therapeutics Program Chemical Repository. The FDA-approved anticancer drug set is available from the Developmental Therapeutics Program. […] The stock solutions were prepared in dimethyl sulfoxide (DMSO, Sigma-Aldrich, St. Louis, MO, cat. D2650) at 800-fold the tested concentration and stored at -70 degrees C prior to their use. All drugs and investigational agents were tested over a range starting from a high concentration at or near the clinical Cmax and decreasing in half-log increments. If the clinical Cmax for an agent had not been determined, the highest concentration tested was 10 microM.
Cell Culture. All cells were maintained in an incubator at 37 degrees C and 5% CO2 with 95% humidity. The PDC lines were cultured according to standard operating procedures established by the NCI PDMR (https://pdmr.cancer.gov/sops/default.htm). Briefly, all PDCs were thawed and cultured in Matrigel-coated flasks prepared with a working solution of 1X Ham's F-12 nutrient mix, without supplementation (Invitrogen, Waltham, MA, cat. 11765054), 100 U/mL penicillin-streptomycin (Invitrogen, cat. 15140122), and 2.5% Matrigel (Corning Inc., Corning, NY, cat. 354248) for the first three passages. All PDCs were cultured in complete DMEM/F-12 media containing advanced DMEM/F-12 (Invitrogen, cat. 12634028), 4.9% defined fetal bovine serum, heat inactivated (HyClone Laboratories Inc., Logan, UT, cat. SH30070.03HI), 389 ng/mL hydrocortisone (Sigma-Aldrich, cat. H4001), 9.7 ng/mL human EGF recombinant protein (Invitrogen, cat. PHG0313), 23.4 microg/mL adenine (Sigma-Aldrich, cat. A2786), 97.3 U/mL penicillin-streptomycin (Invitrogen, cat. 15140122), 1.9 mM L-glutamine (Invitrogen, cat. 25030081), and 9.7 microM Y-27632 dihydrochloride (Tocris Bioscience, Bristol, United Kingdom, cat. 1254). The PDCs were cultured in complete DMEM/F12 media without 9.7 microM Y-27632 dihydrochloride for at least two passages prior to the screen. The established cell line HOP-62 was cultured in RPMI 1640 medium, HEPES (Invitrogen, cat. 22400105) with 10% defined fetal bovine serum (HyClone Laboratories Inc., cat. SH30070.03) and 2 mM L-glutamine (Invitrogen, cat. 25030081). The pooled donor HUVEC were cultured in endothelial cell growth medium 2 (PromoCell, Heidelberg, Germany, cat. C-22011) and the hMSC were cultured in mesenchymal stem cell growth medium 2 (PromoCell, cat. C-28009). For all experiments, HUVEC and hMSC were used at passages </=5, while the malignant cell lines were used at passages </=15. […]

[1] = second compound 0.1 µM, first compound 0.01 µM
[2] = second compound 0.1 µM, first compound 0.0316 µM
[3] = second compound 0.1 µM, first compound 0.1 µM
[4] = second compound 0.316 µM, first compound 0.01 µM
[5] = second compound 0.316 µM, first compound 0.0316 µM
[6] = second compound 0.316 µM, first compound 0.1 µM
[7] = second compound 1 µM, first compound 0.01 µM
[8] = second compound 1 µM, first compound 0.0316 µM
[9] = second compound 1 µM, first compound 0.1 µM
[10] = second compound 3.16 µM, first compound 0.01 µM
[11] = second compound 3.16 µM, first compound 0.0316 µM
[12] = second compound 3.16 µM, first compound 0.1 µM
[13] = second compound 10 µM, first compound 0.01 µM
[14] = second compound 10 µM, first compound 0.0316 µM
[15] = second compound 10 µM, first compound 0.1 µM
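Also: spheroids exposed to agents for 7 days.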
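For viability, T/C in this document: 100% = DMSO vehicle control viability.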

Question: Which results are given for CC(=O)OC12COC1CC(O)C1(C)C(=O)C(O)C3=C(C)C(OC(=O)C(O)C(NC(=O)OC(C)(C)C)c4ccccc4)CC(O)(C(OC(=O)c4ccccc4)C21)C3(C)C (stereo not given) + C=CC(=O)N1CCN(c2nc(=O)n(-c3c(C)ccnc3C(C)C)c3nc(-c4c(O)cccc4F)c(F)cc23)C(C)C1?
Answer: IC50 (second compound 0.1 µM): < 10 nM; IC50 (second compound 0.316 µM): < 10 nM; IC50 (second compound 1 µM): < 10 nM; IC50 (second compound 3.16 µM): < 10 nM; IC50 (second compound 10 µM): < 10 nM; viability, T/C [1]: 22.7%; viability, T/C [2]: 21.7%; viability, T/C [3]: 19.9%; viability, T/C (second compound 0.1 µM, first compound 0.316 µM): 19.2%; viability, T/C (second compound 0.1 µM, first compound 1 µM): 18.9%; viability, T/C (second compound 0.1 µM, first compound 3.16 µM): 22.2%; viability, T/C [4]: 21.9%; viability, T/C [5]: 21.5%; viability, T/C [6]: 21.6%; viability, T/C (second compound 0.316 µM, first compound 0.316 µM): 19.4%; viability, T/C (second compound 0.316 µM, first compound 1 µM): 20.9%; viability, T/C (second compound 0.316 µM, first compound 3.16 µM): 21.1%; viability, T/C [7]: 21.3%; viability, T/C [8]: 19.2%; viability, T/C [9]: 19.6%; viability, T/C (second compound 1 µM, first compound 0.316 µM): 17.4%; viability, T/C (second compound 1 µM, first compound 1 µM): 18.7%; viability, T/C (second compound 1 µM, first compound 3.16 µM): 19.7%; viability, T/C [10]: 19.7%; viability, T/C [11]: 21.9%; viability, T/C [12]: 17.6%; viability, T/C (second compound 3.16 µM, first compound 0.316 µM): 19.6%; viability, T/C (second compound 3.16 µM, first compound 1 µM): 18.9%; viability, T/C (second compound 3.16 µM, first compound 3.16 µM): 18.5%; viability, T/C [13]: 21.3%; viability, T/C [14]: 19.6%; viability, T/C [15]: 19.8%; viability, T/C (second compound 10 µM, first compound 0.316 µM): 15.6%; viability, T/C (second compound 10 µM, first compound 1 µM): 16%; viability, T/C (second compound 10 µM, first compound 3.16 µM): 16.7%

Question: CN(C)C/C=C/C(=O)Nc1cc2c(Nc3ccc(F)c(Cl)c3)ncnc2cc1O[C@H]1CCOC1 + C=CC(=O)N1CCN(c2nc(=O)n(-c3c(C)ccnc3C(C)C)c3nc(-c4c(O)cccc4F)c(F)cc23)C(C)C1 was tested. Which IC50 (second compound 0.1 µM) did it give?
Answer: Its IC50 is 6.19 nM.

Question: What about the IC50 (second compound 0.316 µM) of the same compound?
Answer: The IC50 was 1.29 nM.

Question: What about the IC50 (second compound 1 µM) of the same compound?
Answer: The IC50 was 1.87 nM.

Question: And the IC50 (second compound 3.16 µM)?
Answer: The IC50 was 4.24 nM.

Question: What about the IC50 (second compound 10 µM) of the same compound?
Answer: Its IC50 is 1.48 nM.

Question: And the viability, T/C (second compound 0.1 µM, first compound 0.000316 µM)?
Answer: The viability, T/C was 63.3%.

Question: What about the viability, T/C (second compound 0.1 µM, first compound 0.001 µM) of the same compound?
Answer: The viability, T/C was 50.9%.

Question: What about the viability, T/C (second compound 0.1 µM, first compound 0.00316 µM) of the same compound?
Answer: The viability, T/C was 49.6%.

Question: What about the viability, T/C [1] of the same compound?
Answer: The viability, T/C was 57.7%.

Question: And the viability, T/C [2]?
Answer: The viability, T/C was 43.1%.

Question: And the viability, T/C [3]?
Answer: The viability, T/C was 44%.

Question: And the viability, T/C (second compound 0.316 µM, first compound 0.000316 µM)?
Answer: Its viability, T/C is 61.3%.

Question: And the viability, T/C (second compound 0.316 µM, first compound 0.001 µM)?
Answer: Its viability, T/C is 50%.

Question: What about the viability, T/C (second compound 0.316 µM, first compound 0.00316 µM) of the same compound?
Answer: Its viability, T/C is 47.3%.

Question: And the viability, T/C [4]?
Answer: Its viability, T/C is 42.4%.

Question: And the viability, T/C [5]?
Answer: The viability, T/C was 41.8%.

Question: What about the viability, T/C [6] of the same compound?
Answer: The viability, T/C was 40.5%.

Question: And the viability, T/C (second compound 1 µM, first compound 0.000316 µM)?
Answer: The viability, T/C was 58.6%.

Question: What about the viability, T/C (second compound 1 µM, first compound 0.001 µM) of the same compound?
Answer: The viability, T/C was 54.2%.

Question: And the viability, T/C (second compound 1 µM, first compound 0.00316 µM)?
Answer: Its viability, T/C is 50.5%.

Question: And the viability, T/C [7]?
Answer: The viability, T/C was 41.3%.

Question: And the viability, T/C [8]?
Answer: The viability, T/C was 37.8%.

Question: And the viability, T/C [9]?
Answer: The viability, T/C was 44.6%.

Question: What about the viability, T/C (second compound 3.16 µM, first compound 0.000316 µM) of the same compound?
Answer: The viability, T/C was 58.1%.

Question: And the viability, T/C (second compound 3.16 µM, first compound 0.001 µM)?
Answer: Its viability, T/C is 58%.

Question: And the viability, T/C (second compound 3.16 µM, first compound 0.00316 µM)?
Answer: The viability, T/C was 50.1%.

Question: What about the viability, T/C [10] of the same compound?
Answer: Its viability, T/C is 48%.

Question: And the viability, T/C [11]?
Answer: Its viability, T/C is 40.5%.

Question: And the viability, T/C [12]?
Answer: The viability, T/C was 42.5%.

Question: What about the viability, T/C (second compound 10 µM, first compound 0.000316 µM) of the same compound?
Answer: The viability, T/C was 62.2%.

Question: And the viability, T/C (second compound 10 µM, first compound 0.001 µM)?
Answer: The viability, T/C was 53%.

Question: And the viability, T/C (second compound 10 µM, first compound 0.00316 µM)?
Answer: The viability, T/C was 44.6%.

Question: And the viability, T/C [13]?
Answer: Its viability, T/C is 45.6%.

Question: And the viability, T/C [14]?
Answer: Its viability, T/C is 45.7%.

Question: And the viability, T/C [15]?
Answer: The viability, T/C was 43.5%.
